Source: patent US8044071B2, “Method for reducing side effects of CB2 receptor agonist therapy using a combination of a selective CB2 receptor agonist and a selective CB1 receptor antagonist” (Abbott Laboratories, priority 2007, dated 2011)
Where two headings read alike, the source gives them in different places.

Key:
[1] = tested on: skin incision model of postoperative pain; assay: Skin incision model of postoperative pain (tactile allodynia, von Frey); assay type: in vivo; details: rat; for analgesia (tactile allodynia), agonist after rimonabant: 30 μmol/kg i.p. given 15 min after rimonabant 30 μmol/kg i.p.; for withdrawal threshold for the incisional paw (allodynia): 10 and 30 μmol/kg i.p., two hours after surgery
Excerpt: Adult male Sprague-Dawley rats (250-300 g body weight, Charles River Laboratories, Portage, Mich.) were used. Animal handling and experimental protocols were approved by the Institutional Animal Care and Use Committee (IACUC) at Abbott Laboratories. For all surgical procedures, animals were maintained under halothane anesthesia (4% to induce, 2% to maintain), and the incision sites were sterilized using a 10% povidone-iodine solution prior to and after surgeries.
A skin incision model of postoperative pain was produced using the procedures described in Brennan et al., 1996, Pain, 64, 493. All rats were anesthetized with isoflurane delivered via a nose cone. Right hind paw incision was performed following sterilization procedures. The plantar aspect of the […] hind paw was placed through a hole in a sterile plastic drape. A 1-cm longitudinal incision was made through the skin and fascia of the plantar aspect of the hind paw, starting 0.5 cm from the proximal edge of the heel and extending towards the toes, the plantar muscle was elevated and incised longitudinally leaving the muscle origin and insertion points intact. The skin was then closed with two mattress sutures (5-0 nylon). After surgery, animals were then allowed to recover for 2 hours, at which time tactile allodynia was assessed as described below. To evaluate the anti-nociceptive effects, animals were i.p. administered vehicle or test compound 90 minutes following skin incision and tactile allodynia was typically assessed 30 minutes after compound administration.
Tactile allodynia was measured using calibrated von Frey filaments (Stoelting, Wood Dale, Ill.) as described in Chaplan, S. R., F. W. Bach, J. W. Porgrel, J. M. Chung and T. L. Yaksh, 1994, Quantitative assessment of tactile allodynia in the rat paw, J. Neurosci. Methods, 53, 55. Rats were placed into inverted individual plastic cage (20×12.5×20 cm) on top of a suspended wire mesh grid, and acclimated to the test chambers for 20 minutes. The von Frey filaments were applied perpendicularly from underneath the cage through openings in the wire mesh floor directly to an area within 1-3 mm (immediately adjacent) of the incision, and then held in this position for approximately 8 seconds with enough force to cause a slight bend in the filament. Positive responses included an abrupt withdrawal of the hind paw from the stimulus, or flinching behavior immediately following removal of the stimulus. A 50% withdrawal threshold was determined using an up-down procedure as described in Dixon, W. J., 1980, Efficient analysis of experimental observations, Ann. Rev. Pharmacol. Toxicol., 20, 441. The effect on paw withdrawal latency of test compounds compared to vehicle control represents the ability of the test compound to reduce allodynia. An increase in the paw withdrawal latency represents an anti-allodynic effect (i.e., a decrease in pain).
Using the skin incisional model of postoperative pain, the effects of compound A, CB2 agonist (Z)—N-(5-tert-butyl-3-butylthiazol-2(3H)-ylidene)-5-chloro-2-methoxybenzamide, on allodynia was assessed two hours after surgery.
(§1) Using the skin incisional model of postoperative pain, the effects of CB2 agonist A were evaluated after the administration of vehicle or the CB1 antagonist rimonabant. This effect was compared with the administration of vehicle after the administration of vehicle or the CB1 antagonist rimonabant. A first dose, consisting of CB1 antagonist rimonabant (30 μmol/kg i.p.) or a vehicle (5% DMSO/PEG), was administered 15 minutes before a second dose, consisting of administration of CB2 agonist A (30 μmol/kg i.p.) or vehicle. Allodynia testing was conducted 30 minutes after administration of the second dose, either CB2 agonist A or vehicle.

[2] = tested on: spontaneous locomotor activity; assay: Measurement of locomotor activity (open field, horizontal activity); assay type: in vivo; details: rat; for horizontal locomotor activity, agonist after rimonabant: 30 μmol/kg i.p., rimonabant 30 μmol/kg i.p. 15 min before
Protocol: Adverse effects may also be determined by the Measurement of Locomotor Activity. Spontaneous activity is assessed in an open-field environment (42 (length)×42 (base)×40 cm (height); Piper Plastics, Libertyville, Ill.) situated inside Versamax/Digiscan monitors, each equipped with infrared sensors (AccuScan Instruments, Inc., Columbus, Ohio) in a dimly illuminated test room. Following administration of test compounds or vehicle control, rats are individually placed into the test chambers and horizontal (locomotion) activity is recorded for 30 min. A reduction in horizontal motor activity for a test compound compared to the effect of vehicle is a measure of adverse effects; the greater the reduction in activity, the greater the adverse effect. Data is analyzed by ANOVA followed by Fisher's Protected Least significant difference (PLSD) analysis as a post hoc comparison (JMP statistic database; SAS Institute, Inc., Cary, N.C.). A p<0.05 was considered significant.
These effects also indicate that the reduction in locomotor activity by CB2 agonist B results from its residual activation of the CB1 receptor.
as §1, with “the locomotor activity assay,” for “the skin incisional model of postoperative pain,”, “vehicle. Locomotor” for “vehicle. Allodynia”, “vehicle. […] CB2 agonist A administered after vehicle decreased horizontal locomotor activity by 91%.” for “vehicle.”

human CB2 receptors = target: T1, human CB2 receptors (Homo sapiens, UniProt P34972); assay: CB2 radioligand binding assay ([3H]CP-55,940 competition)
T1 construct: expressed in transfected cells
T1 sequence (P34972 whole entry): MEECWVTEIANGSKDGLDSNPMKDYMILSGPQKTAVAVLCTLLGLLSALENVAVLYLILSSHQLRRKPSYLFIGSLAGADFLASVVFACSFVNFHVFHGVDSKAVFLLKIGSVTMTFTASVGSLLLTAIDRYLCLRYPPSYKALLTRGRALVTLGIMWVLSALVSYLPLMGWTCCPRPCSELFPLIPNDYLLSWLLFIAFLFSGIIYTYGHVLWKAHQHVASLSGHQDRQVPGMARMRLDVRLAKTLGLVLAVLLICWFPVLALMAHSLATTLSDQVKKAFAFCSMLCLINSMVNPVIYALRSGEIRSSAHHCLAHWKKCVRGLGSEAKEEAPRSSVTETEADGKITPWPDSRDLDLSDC
Protocol: To determine the selectivity (Ki) of the compounds of the present application for CB2 receptors relative to CB1 receptors, radioligand binding assays are performed, which are described herein.
For CB2 radioligand binding assays, HEK293 cells stably expressing human CB2 receptors were grown until a confluent monolayer was formed. Briefly, the cells were harvested and homogenized in TE buffer (50 mM Tris-HCl, 1 mM MgCl2, and 1 mM EDTA) using a polytron for 2×10 second bursts in the presence of protease inhibitors, followed by centrifugation at 45,000×g for 20 minutes. The final membrane pellet was re-homogenized in storage buffer (50 mM Tris-HCl, 1 mM MgCl2, and 1 mM EDTA and 10% sucrose) and frozen at −78° C. until used. Saturation binding reactions were initiated by the addition of membrane preparation (protein concentration of 5 μg/well for human CB2) into wells of a deep well plate containing [^3H]CP-55,940 (120 Ci/mmol, a nonselective CB agonist commercially available from Tocris) in assay buffer (50 mM Tris, 2.5 mM EDTA, 5 mM MgCl2, and 0.5 mg/mL fatty acid free BSA, pH 7.4). After 90 min incubation at 30° C., binding reaction was terminated by the addition of 300 μl/well of cold assay buffer followed by rapid vacuum filtration through a UniFilter-96 GF/C filter plates (pre-soaked in 1 mg/mL BSA for 2 hours). The bound activity was counted in a TopCount using Microscint-20. […]

## CCCCn1cc(C(C)(C)C)s/c1=N\C(=O)c1cc(Cl)ccc1OC [compound A, (Z)—N-(5-tert-butyl-3-butylthiazol-2(3H)-ylidene)-5-chloro-2-methoxybenzamide]
[1]; tested 30 min after second dose
  analgesia (tactile allodynia), agonist after rimonabant: equivalent efficacy
[1]; tested 30 min after second dose, listed as CB2 agonist A
  analgesia (tactile allodynia), agonist after rimonabant: able to induce analgesia
[1]; 30 μmol/kg i.p. given 15 min after vehicle, tested 30 min after second dose
  analgesia (tactile allodynia), agonist after vehicle: able to induce analgesia
[1]
  withdrawal threshold for the incisional paw (allodynia): recovered
[2]; 30 μmol/kg i.p. after vehicle, tested 30 min after second dose
  decrease of horizontal locomotor activity, agonist after vehicle: 91%
[2]
  horizontal locomotor activity, agonist after rimonabant: much reduced side effects
[2]; listed as CB2 agonist A
  horizontal locomotor activity, agonist after rimonabant: able to block said decrease
Human CB2 receptors
  Ki: 1.8 nM

## COCCn1c(C)c(C)s/c1=N\C(=O)C1C(C)(C)C1(C)C [compound B, (Z)—N-(3-(2-methoxyethyl)-4,5-dimethylthiazol-2(3H)-ylidene)-2,2,3,3-tetramethylcyclopropanecarboxamide]
[1]
  withdrawal threshold for the incisional paw (allodynia): re-establishing withdrawal threshold
[2]; 30 and 45 μmol/kg i.p., tested 30 min after administration
  spontaneous locomotor activity, agonist alone: significantly reduces spontaneous locomotor activity
[2]; rimonabant 30 μmol/kg i.p. 15 min before CB2 agonist B
  spontaneous locomotor activity, agonist after rimonabant: reduction in locomotor activity was eliminated
Human CB2 receptors; HEK293 membranes expressing human CB2, 0.5 nM [3H]CP-55,940, read-out: Ki for CB2 receptors
  Ki: 0.6 nM
